Results taken from US5356880A, “Glycyrrhetinic acid derivatives” (priority 1991, dated 1994).
Where two headings read alike, the source gives them in different places.

Assays:
[1] = tested on: HSV-2 (UW-268 strain); test: microbe, parasite or virus in culture; type: cell-based, Herpes simplex virus type 2; settings: Human alphaherpesvirus 2, Vero, read-out: Antiviral Activity (ΔTCID50)
[2] = tested on: HSV-1 (Miyama strain); test: In vitro antiviral action on cells infected with HSV-1 (Miyama strain), CPE inhibition, TCID50; type: cell-based, Herpes simplex virus type 1; settings: Human alphaherpesvirus 1, GMK cells, read-out: Antiviral Activity (ΔTCID50)
[3] = tested on: Vero cells
[4] = Acute toxicity testing, oral, mice (LD50, Litchfield-Willcoxon); settings: mouse, in vivo, ICR male mice, 7 days observation
Source text: The compounds to be tested in the form of a 2% aqueous solution of Tween 80 were orally administrated to ICR male mice (weights: 24-30 g), five for each group.

[5] = tested on: vaccinia viruses (D1E strain); test: microbe, parasite or virus in culture; type: cell-based; settings: Orthopoxvirus vaccinia, Vero, read-out: Antiviral Activity (ΔTCID50)
[6] = tested on: GMK cells
[7] = tested on: HSV-1 (KOS strain); test: microbe, parasite or virus in culture; type: cell-based, Herpes simplex virus type 1; settings: Human alphaherpesvirus 1, Vero, read-out: Antiviral Activity (ΔTCID50)
[8] = tested on: influenza viruses (A/PR/8 strain); test: microbe, parasite or virus in culture; type: cell-based, influenza virus A/PR/8; settings: unidentified influenza virus, PR/8, MDCK, read-out: Antiviral Activity (ΔTCID50)
[9] = tested on: influenza viruses; settings: in vivo; cited from earlier work

SMILES: COc1ccccc1N1CCN(C(=O)[C@@]2(C)CC[C@]3(C)CC[C@]4(C)C(=CC[C@@H]5[C@@]6(C)CC[C@H](O[C@H]7O[C@H](C(=O)O)[C@@H](O)[C@H](O)[C@H]7O[C@@H]7O[C@H](C(=O)O)[C@@H](O)[C@H](O)[C@H]7O)C(C)(C)[C@@H]6CC[C@]54C)[C@@H]3C2)CC1 [Comp. Ex. 37, 30-(N-2-(4-(2-methoxylphenyl)piperazine-1-yl)carbonyl)-18β-olean-12-en-3β-yl-2-O-β-D-glucuronyl-α-D-gluconic acid]
- log reduction at 1 µg/mL [1]: 1.87
- log reduction at 5 µg/mL [1]: 3.01
- log reduction at 25 µg/mL [1]: > 3.85
- log reduction at 1 µg/mL ([2]; 1 μg/ml): 1.94
- log reduction at 5 µg/mL ([2]; 5 μg/ml): > 3.17
- log reduction at 25 µg/mL ([2]; 25 μg/ml): > 3.73
- magnitude of cytotoxicity [3]: -
- LD50 at 168 h [4]: > 1000 mg/kg
- log reduction at 1 µg/mL [5]: 1.49
- log reduction at 5 µg/mL [5]: 2.85
- log reduction at 25 µg/mL [5]: 2.61
- magnitude of cytotoxicity ([6]; 1 μg/ml): -
- magnitude of cytotoxicity ([6]; 5 μg/ml): -
- magnitude of cytotoxicity ([6]; 25 μg/ml): -
- log reduction at 1 µg/mL [7]: 2.74
- log reduction at 5 µg/mL [7]: 2.65
- log reduction at 25 µg/mL [7]: > 3.25
- log reduction at 1 µg/mL [8]: 1.64
- log reduction at 5 µg/mL [8]: 1.7
- log reduction at 25 µg/mL [8]: 2.38

SMILES: N#CNc1nncs1 [LY253963]
- effect on influenza viruses in animal tests [9]: resistant to influenza viruses in animal tests
